Molecular target: T1, recombinant human progestin receptor (Homo sapiens, UniProt P06401)
T1 sequence (P06401 1-933): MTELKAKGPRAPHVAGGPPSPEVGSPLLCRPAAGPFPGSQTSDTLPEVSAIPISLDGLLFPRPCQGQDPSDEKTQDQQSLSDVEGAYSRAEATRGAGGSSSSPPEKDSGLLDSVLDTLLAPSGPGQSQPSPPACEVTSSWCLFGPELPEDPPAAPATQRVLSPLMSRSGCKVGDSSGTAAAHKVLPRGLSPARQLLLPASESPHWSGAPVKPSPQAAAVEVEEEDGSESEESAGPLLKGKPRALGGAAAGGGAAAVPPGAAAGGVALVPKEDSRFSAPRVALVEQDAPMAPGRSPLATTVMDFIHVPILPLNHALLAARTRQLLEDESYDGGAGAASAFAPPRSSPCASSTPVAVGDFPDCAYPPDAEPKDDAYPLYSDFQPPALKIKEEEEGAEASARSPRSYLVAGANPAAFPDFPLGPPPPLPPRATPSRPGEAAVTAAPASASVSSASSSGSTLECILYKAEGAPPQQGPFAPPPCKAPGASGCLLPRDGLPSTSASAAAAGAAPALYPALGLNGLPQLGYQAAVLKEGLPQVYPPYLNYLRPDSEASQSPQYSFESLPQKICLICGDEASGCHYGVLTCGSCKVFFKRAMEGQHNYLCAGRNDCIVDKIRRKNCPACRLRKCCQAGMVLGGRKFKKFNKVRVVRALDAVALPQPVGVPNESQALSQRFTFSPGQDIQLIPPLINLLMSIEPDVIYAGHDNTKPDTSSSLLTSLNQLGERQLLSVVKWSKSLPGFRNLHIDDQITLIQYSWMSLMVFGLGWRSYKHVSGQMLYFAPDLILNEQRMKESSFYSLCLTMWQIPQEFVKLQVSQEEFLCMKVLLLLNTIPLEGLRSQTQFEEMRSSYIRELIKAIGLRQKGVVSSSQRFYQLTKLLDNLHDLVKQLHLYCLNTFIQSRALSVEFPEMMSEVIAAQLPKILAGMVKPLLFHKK
Assay: Relative binding affinity to recombinant human progestin receptor
From the text: Methods of determining affinity to the aforementioned receptors are known to the person skilled in the art. In this context, reference can be made, for example, to EP-A 808 845; Lacroix et al., Bioorganic & Medicinal Chemistry 1999 (7) 2329-2341; and D. Philibert et al., Gynecol Endocrinol 1999, 13, 316-26.
The relative binding affinities of (2S,17S)-17-(2-hydroxypropanoyl)-3-hydroxy-17-methyl-estra-1,3,5(10),9(11)-tetraene [compound of the general formula (IV)] to the recombinant human progestin receptor, mineral corticoid receptor, androgen receptor, glucocorticoid receptor and oestrogen receptor were determined experimentally (cf. D. Philibert et al., Gynecol Endocrinol 1999, 13, 316-26).

C[C@H](O)C(=O)[C@@]1(C)CC[C@H]2[C@@H]3CCc4cc(O)ccc4C3=CC[C@@]21C [(2S,17S)-17-(2-hydroxypropanoyl)-3-hydroxy-17-methylestra-1,3,5(10),9(11)-tetraene]
affinity to the progestin receptor (relative binding affinity) (recombinant human receptor, progesterone reference standard): clear affinity | selectivity for the progestin receptor (versus other steroid receptors (mineral corticoid, androgen, glucocorticoid, oestrogen), quotient of relative binding affinities): high selectivity

Source: patent publication US20090264387A1, “ESTRA-1,3,5(10)-TRIENE DERIVATIVES FOR CONTRACEPTION” (GRUNENTHAL GMBH, priority 2008, published 2009)
